Test results as given in patent US12653798B2, “Fixed combination medicine for the control and management of neuropathic pain” (LABORATORIOS SILANES S.A. DE C.V., priority 2020, dated 2026).

Tests used:
[1] = in vivo; cited from earlier work
[2] = Dissolution profile tests; type: physicochemical

Row | SMILES | AUC [1] [μ · h/mL] | Bioavailability [1] | Cmax [1] [ng/mL] | t1/2 [1] [h] | tmax [1] [h] | % dissolved ([2]; t 0 min) [%] | % dissolved ([2]; t 10 min) [%] | % dissolved ([2]; t 60 min) [%]
1 | O=C(O)Cc1ccccc1Nc1c(Cl)cccc1Cl [Diclofenac] | 4.4 ± 0.08 | 50-60% | 100 to 2200 | 1.0 to 2.0 | 1.98 | – | – | –
2 | CC(C)Cc1ccc(C(C)C(=O)O)cc1 (centres unmarked) [Ibuprofen] | 70 | 80% | 20000 | – | 2 | – | – | –
3 | O=C(c1ccccc1)c1ccc2n1CCC2C(=O)O (centres unmarked) [Ketorolac] | 4.81 | 80% | 5420 | 3.0 to 6.0 | 0.33 to 1.0 | – | – | –
4 | Cc1cnc(NC(=O)C2=C(O)c3ccccc3S(=O)(=O)N2C)s1 [Meloxicam] | 28.8 | – | 1620 ± 200 | – | 3.0 to 6.0 | – | – | –
5 | Cc1ncc(CO)c(CO)c1O.Cl [pyridoxine hydrochloride] | – | – | – | – | – | 0.00 | 95.38 | 90.54
